Reference: patent publication US8987474B2 (University of South Florida, priority 2006, dated 2015)

Target: Shp2 (Homo sapiens (Human), UniProt Q06124)
Assay: PTP activity assay (DiFMUP substrate) with GST-Shp2
Assay type: biochemical
Settings: for IC50: Table II, Shp2
Excerpt: All constructs were verified by DNA sequencing.
Recombinant DEP1 was from Abcam.

Chain of Shp2 (Q06124 205-593): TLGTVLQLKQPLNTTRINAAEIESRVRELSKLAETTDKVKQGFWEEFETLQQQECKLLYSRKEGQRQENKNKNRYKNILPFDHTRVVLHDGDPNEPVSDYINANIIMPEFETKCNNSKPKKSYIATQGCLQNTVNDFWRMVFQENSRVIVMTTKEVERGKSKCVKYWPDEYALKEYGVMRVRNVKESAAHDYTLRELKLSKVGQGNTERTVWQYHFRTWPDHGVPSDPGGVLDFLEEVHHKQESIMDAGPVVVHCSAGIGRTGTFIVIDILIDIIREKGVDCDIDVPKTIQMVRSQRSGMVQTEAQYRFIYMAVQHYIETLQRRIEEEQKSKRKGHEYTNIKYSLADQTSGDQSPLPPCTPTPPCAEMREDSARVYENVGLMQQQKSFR

Row | Compound | % PTP activity (at 20 μM) | % PTP activity (concentration not given) | IC50
1 | CC(C)NS(=O)(=O)c1ccc2c(c1)/C(=C/Nc1ccccc1[N+](=O)[O-])C(=O)N2 [RPM303, 3-[(2-Nitrophenylamino)methylene]-2-oxo-2,3-dihydro-1H-indole-5-sulfonic acid isopropylamide] | 46 ± 1% (2) 20 μM | – | –
2 | CC(C)NC(=O)c1ccc2c(c1)/C(=N/Nc1ccccc1C(=O)O)C(=O)N2 [HL2-070-6] | 78.87% (1) at 20 μM | – | –
3 | O=C1Nc2ccc(S(=O)(=O)NCC3CCCO3)cc2/C1=N/Nc1ccccc1Cl (centres unmarked) [HL2-016-14] | – | 42 ± 5% (6) | –
4 | O=C1Nc2ccc(S(=O)(=O)N3CCOCC3)cc2/C1=N/Nc1ccccc1[N+](=O)[O-] [RPM177] | – | 36 ± 8% (6) | –
5 | CN(C)S(=O)(=O)c1ccc2c(c1)/C(=N/Nc1ccccc1Cl)C(=O)N2 [HL2-016-1] | – | 36 ± 11% (12) | –
6 | O=C1Nc2ccc(S(=O)(=O)NCc3cccnc3)cc2/C1=N/Nc1ccccc1[N+](=O)[O-] [HL2-016-20] | – | 68 ± 8% (6) | –
7 | CC(C)NS(=O)(=O)c1ccc2c(c1)/C(=N/Nc1ccccc1C(=O)N(C)C)C(=O)N2 [RPM294, 2-[N′-(5-Isopropylsulfamoyl-2-oxo-1,2-dihydro-indol-3-ylidene)hydrazino]-N,N-dimethylbenzamide] | 48 ± 0% (2) At 20 μM | – | –
8 | CCN1C(=O)/C(=N\Nc2ccccc2[N+](=O)[O-])c2cc(S(=O)(=O)N(C)C)ccc21 [RPM176, 1-Ethyl-3-[(2-nitro-phenyl)-hydrazono]-2-oxo-2,3-dihydro-1H-indole-5-sulfonic acid dimethylamide] | – | 50% ± 5% (6) | –
9 | COc1cccc(CNS(=O)(=O)c2ccc3c(c2)/C(=N/Nc2ccccc2Cl)C(=O)N3)c1 [HL2-016-5] | – | 51 ± 4% (6) | –
10 | O=C(O)c1ccc2cc(C(=O)Nc3ccccc3)ccc2c1 [RPM183] | – | 79 ± 16 (7) % | –
11 | CCc1ccccc1N/N=C1\C(=O)Nc2ccc(C(=O)O)cc21 [RPM320, 3-[(2-Ethylphenyl)hydrazono]-2-oxo-2,3-dihydro-1H-indole-5-carboxylic acid] | 44 ± 5% (2) At 20 μM | – | –
12 | COC(=O)c1ccc2[nH]cc(C(=O)c3ccccc3)c2c1 [RPM341, 3-Benzoyl-1H-indole-5-carboxylic acid methyl ester] | 42 ± 10% (2) at 20 μM | – | –
13 | O=C1Nc2ccc(S(=O)(=O)NCc3ccccn3)cc2/C1=N/Nc1ccccc1Cl [HL2-016-7] | – | 41 ± 23% (12) | –
14 | CC(C)NS(=O)(=O)c1ccc2c(c1)/C(=N/Nc1ccccc1C(=O)NCCN(C)C)C(=O)N2 [RPM284, N-(2-Dimethylaminoethyl)-2-[N′-(5-isopropylsulfamoyl-2-oxo-1,2-dihydro-indol-3-ylidene)hydrazino]benzamide] | 47 ± 6% (2) At 20 μM | – | –
15 | O=C1Nc2ccc(S(=O)(=O)O)cc2/C1=N/Nc1ccc(Cl)cc1Cl [RPM224, 2-Oxo-3-[(2,4-dichlorophenylhydrazono)]-2,3-dihydro-1H-indole-5-sulfonic acid] | 81 ± 10% (3) at 20 μM | – | 33 to 100 µM
16 | O=C1Nc2ccc(S(=O)(=O)NCc3cccs3)cc2/C1=N/Nc1ccccc1[N+](=O)[O-] [RPM140, 3-[(2-Nitrophenyl)hydrazono]-2-oxo-2,3-dihydro-1H-indole-5-sulfonic acid (thiophen-2-ylmethyl)amide] | – | 37 ± 4% (6) | –
17 | CC(C)CNS(=O)(=O)c1ccc2c(c1)/C(=N/Nc1ccccc1Cl)C(=O)N2 [HL2-016-10] | – | 36 ± 17 (12) % | –
18 | O=C1Nc2ccc(S(=O)(=O)O)cc2/C1=N/Nc1c(F)c(F)c(F)c(F)c1F [RPM222, 2-Oxo-3-(pentafluorophenylhydrazono)-2,3-dihydro-1H-indole-5-sulfonic acid] | 58 ± 6% (3) at 20 μM | – | 33 to 100 µM

Row | Compound | % PTP activity (at 20 μM) | % PTP activity (concentration not given) | IC50
19 | O=C1Nc2ccc(S(=O)(=O)O)cc2/C1=N/Nc1ccccc1C(=O)O [RPM211, 2-[N′-(2-Oxo-5-sulfo-1,2-dihydro-indol-3-ylidene)hydrazino]benzoic acid] | 67 ± 8% at 20 μM | – | 33 to 100 µM
20 | O=C1C=CC2C(=C1O)Oc1c(ccc(O)c1O)C2C1CCCCC1C(=O)O (centres unmarked) [NSC-119910, reference compound] | – | 0.56 ± 0.1% (3) | –
21 | COC(=O)c1cc(NC(=O)c2ccc3cc(C(=O)OC)ccc3c2)cc(C(=O)OC)c1 [HL2-026-Intermediate] | – | 40 ± 4% (6) | 33 to 100 µM
22 | O=C1Nc2ccc(S(=O)(=O)O)cc2/C1=N/Nc1cccc2ccccc12 [RPM223, 3-(Naphthalen-1-ylhydrazono)-2-oxo-2,3-dihydro-1H-indole-5-sulfonic acid] | 76 + 12% at 20 μM | – | 33 to 100 µM
23 | CN(C)S(=O)(=O)c1ccc2c(c1)/C(=N/Nc1ccccc1[N+](=O)[O-])C(=O)N2 [RPM124, 3-[(2-Nitrophenyl)hydrazono]-2-oxo-2,3-dihydro-1H-indole-5-sulfonic acid dimethylamide] | – | 52 ± 5% (6) | 33 to 100 µM
24 | CC(C)NS(=O)(=O)c1ccc2c(c1)/C(=C/Nc1cccc(C(=O)O)c1)C(=O)N2 [RPM304, 3-[(5-Isopropylsulfamoyl-2-oxo-1,2-dihydro-indol-3-ylidenemethyl)amino]benzoic acid] | 82.31% (1) At 20 μM | – | 33 to 100 µM
25 | O=C1Nc2ccc(S(=O)(=O)O)cc2/C1=N/Nc1ccccc1Cl [HL1-058-1] | – | 69 ± 9% (2) | 33 to 100 µM
26 | CC(C)NS(=O)(=O)c1ccc2c(c1)/C(=N/Nc1ccccc1C(=O)NCc1cccnc1)C(=O)N2 [RPM290, 2-[N′-(5-Isopropylsulfamoyl-2-oxo-1,2-dihydro-indol-3-ylidene)hydrazino]-N-pyridin-3-ylmethylbenzamide] | 46 ± 2% (2) At 20 μM | – | 33 to 100 µM
27 | CCCNS(=O)(=O)c1ccc2c(c1)/C(=N/Nc1ccccc1Cl)C(=O)N2 [HL2-016-9] | – | 48 ± 1% (6) | –
28 | O=C1Nc2ccccc2/C1=N/Nc1ccccc1[N+](=O)[O-] [HL1-047] | – | 93 ± 9% (3) | 33 to 100 µM
29 | O=C(O)c1cc(NC(=O)c2ccc3cc(C(=O)O)ccc3c2)cc(C(=O)O)c1 [HL2-026] | – | 87 ± 14% (6) | –
30 | COc1cccc(CNS(=O)(=O)c2ccc3c(c2)/C(=N/Nc2ccccc2[N+](=O)[O-])C(=O)N3)c1 [RPM137, 3-[(2-Nitrophenyl)hydrazono]-2-oxo-2,3-dihydro-1H-indole-5-sulfonic acid 3-methoxybenzylamide] | – | 31 ± 4% (12) | –
31 | O=C1Nc2ccc(S(=O)(=O)NCc3ccco3)cc2/C1=N/Nc1ccccc1[N+](=O)[O-] [RPM168, 3-[(2-Nitrophenyl)hydrazono]-2-oxo-2,3-dihydro-1H-indole-5-sulfonic acid (furan-2-ylmethyl)amide] | – | 42 + 4% (6) | –
32 | O=C1Nc2ccc(S(=O)(=O)NCN3CCOCC3)cc2/C1=N/Nc1ccccc1Cl [HL2-016-8] | – | 41 ± 4% (6) | –
33 | O=C(O)c1ccc2cc(C(=O)Nc3c(O)cccc3C(=O)O)ccc2c1 [RPM204] | 68 ± 5% (3) at 20 uM | – | 33 to 100 µM
34 | CN(Cc1ccccc1)S(=O)(=O)c1ccc2c(c1)/C(=N/Nc1ccccc1Cl)C(=O)N2 [HL2-016-16] | – | 64 ± 12% (6) | –
35 | O=C1Nc2ccc(S(=O)(=O)O)cc2/C1=N/Nc1c(Cl)cccc1Cl [RPM218, 2-Oxo-3-[(2,6-dichlorophenylhydrazono)]-2,3-dihydro-1H-indole-5-sulfonic acid] | 53 ± 0.1% (2) at 20 μM | – | 33 to 100 µM
